Measurements reported in the supplement of paper PMC10307832.

Experiments:
Experiment in all cases: relative viability (nuclei count vs DMSO), 5 days (fraction); higher = more cells survive
HARA = tested on: HARA
How it was run: (§1)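 Lung cancer cell lines, seeded in 1536-well plates, were treated the following day by pin tool with a single drug or with five library-drug doses (not always all listed) in √10 steps on top of a fixed anchor-drug dose. Cells were fixed and nuclei stained in one step after 5 days, and nuclei were counted. Relative viability is the nuclei count for treated wells divided by that for vehicle wells, reported as medians of duplicate plates.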

NCI-H358 = tested on: NCI-H358
How it was run: as §1

NCI-H596 = tested on: NCI-H596
How it was run: as §1

NCI-H1755 = tested on: NCI-H1755
How it was run: as §1

PC-3 [JPC-3] = tested on: PC-3 [JPC-3]
How it was run: as §1

NCI-H1793 = tested on: NCI-H1793
How it was run: as §1

NCI-H322M = tested on: NCI-H322M
How it was run: as §1

H3255 = tested on: H3255
How it was run: as §1

NCI-H2085 = tested on: NCI-H2085
How it was run: as §1

NCI-H1651 = tested on: NCI-H1651
How it was run: as §1

NCI-H2087 = tested on: NCI-H2087
How it was run: as §1

NCI-H1650 = tested on: NCI-H1650
How it was run: as §1

HCC-78 = tested on: HCC-78
How it was run: as §1

201T = tested on: 201T
How it was run: as §1

NCI-H3122 = tested on: NCI-H3122
How it was run: as §1

SK-LU-1 = tested on: SK-LU-1
How it was run: as §1

COR-L23 = tested on: COR-L23
How it was run: as §1

HCC-366 = tested on: HCC-366
How it was run: as §1

NCI-H650 = tested on: NCI-H650
How it was run: as §1

LU99A = tested on: LU99A
How it was run: as §1

NCI-H23 = tested on: NCI-H23
How it was run: as §1

NCI-H460 = tested on: NCI-H460
How it was run: as §1

CCNC(=O)c1noc(-c2cc(C(C)C)c(O)cc2O)c1-c1ccc(CN2CCOCC2)cc1 [Luminespib] + COc1cc2c(Oc3ccc(NC(=O)C4(C(=O)Nc5ccc(F)cc5)CC4)cc3F)ccnc2cc1OCCCN1CCOCC1 [Foretinib] (partner 0.25 µM)
relative viability (HARA; first compound 0.002 µM): 1.09 | relative viability (HARA; first compound 0.006325 µM): 0.728 | relative viability (HARA; first compound 0.02 µM): 1.08 | relative viability (HARA; first compound 0.06325 µM): 0.922 | relative viability (HARA; first compound 0.2 µM): 0.785 | relative viability (NCI-H358; first compound 0.002 µM): 0.69 | relative viability (NCI-H358; first compound 0.006325 µM): 0.705 | relative viability (NCI-H358; first compound 0.02 µM): 0.631 | relative viability (NCI-H358; first compound 0.06325 µM): 0.06 | relative viability (NCI-H358; first compound 0.2 µM): 0.0569 | relative viability (NCI-H596; first compound 0.002 µM): 0.868 | relative viability (NCI-H596; first compound 0.006325 µM): 0.78 | relative viability (NCI-H596; first compound 0.02 µM): 0.695 | relative viability (NCI-H596; first compound 0.06325 µM): 0.787 | relative viability (NCI-H596; first compound 0.2 µM): 0.783 | relative viability (NCI-H1755; first compound 0.002 µM): 0.874 | relative viability (NCI-H1755; first compound 0.006325 µM): 0.946 | relative viability (NCI-H1755; first compound 0.02 µM): 0.948 | relative viability (NCI-H1755; first compound 0.06325 µM): 0.555 | relative viability (NCI-H1755; first compound 0.2 µM): 0.305 | relative viability (PC-3 [JPC-3]; first compound 0.002 µM): 1.01 | relative viability (PC-3 [JPC-3]; first compound 0.006325 µM): 0.938 | relative viability (PC-3 [JPC-3]; first compound 0.02 µM): 1.18 | relative viability (PC-3 [JPC-3]; first compound 0.06325 µM): 0.728 | relative viability (PC-3 [JPC-3]; first compound 0.2 µM): 0.259 | relative viability (NCI-H1793; first compound 0.002 µM): 0.739 | relative viability (NCI-H1793; first compound 0.006325 µM): 0.892 | relative viability (NCI-H1793; first compound 0.02 µM): 0.472 | relative viability (NCI-H1793; first compound 0.06325 µM): 0.551 | relative viability (NCI-H1793; first compound 0.2 µM): 0.189 | relative viability (NCI-H322M; first compound 0.002 µM): 0.932 | relative viability (NCI-H322M; first compound 0.006325 µM): 0.998 | relative viability (NCI-H322M; first compound 0.02 µM): 0.795 | relative viability (NCI-H322M; first compound 0.06325 µM): 0.323 | relative viability (NCI-H322M; first compound 0.2 µM): 0.3 | relative viability (H3255; first compound 0.002 µM): 0.785 | relative viability (H3255; first compound 0.006325 µM): 0.821 | relative viability (H3255; first compound 0.06325 µM): 0.833 | relative viability (H3255; first compound 0.2 µM): 0.329 | relative viability (NCI-H2085; first compound 0.002 µM): 1.19 | relative viability (NCI-H2085; first compound 0.006325 µM): 0.896 | relative viability (NCI-H2085; first compound 0.02 µM): 1.07 | relative viability (NCI-H2085; first compound 0.06325 µM): 0.603 | relative viability (NCI-H2085; first compound 0.2 µM): 0.457 | relative viability (NCI-H1651; first compound 0.002 µM): 0.837 | relative viability (NCI-H1651; first compound 0.006325 µM): 0.718 | relative viability (NCI-H1651; first compound 0.02 µM): 0.826 | relative viability (NCI-H1651; first compound 0.06325 µM): 0.309 | relative viability (NCI-H1651; first compound 0.2 µM): 0.208 | relative viability (NCI-H2087; first compound 0.002 µM): 1.11 | relative viability (NCI-H2087; first compound 0.006325 µM): 1.1 | relative viability (NCI-H2087; first compound 0.02 µM): 1.37 | relative viability (NCI-H2087; first compound 0.06325 µM): 0.118 | relative viability (NCI-H2087; first compound 0.2 µM): 0.113 | relative viability (NCI-H1650; first compound 0.002 µM): 1.26 | relative viability (NCI-H1650; first compound 0.006325 µM): 1.17 | relative viability (NCI-H1650; first compound 0.02 µM): 1.23 | relative viability (NCI-H1650; first compound 0.06325 µM): 0.158 | relative viability (NCI-H1650; first compound 0.2 µM): 0.164 | relative viability (HCC-78; first compound 0.002 µM): 0.627 | relative viability (HCC-78; first compound 0.006325 µM): 0.593 | relative viability (HCC-78; first compound 0.06325 µM): 0.609 | relative viability (HCC-78; first compound 0.2 µM): 0.598 | relative viability (201T; first compound 0.002 µM): 1.06 | relative viability (201T; first compound 0.006325 µM): 1.07 | relative viability (201T; first compound 0.02 µM): 1.08 | relative viability (201T; first compound 0.06325 µM): 0.173 | relative viability (201T; first compound 0.2 µM): 0.159 | relative viability (NCI-H3122; first compound 0.002 µM): 1.07 | relative viability (NCI-H3122; first compound 0.006325 µM): 0.887 | relative viability (NCI-H3122; first compound 0.02 µM): 0.925 | relative viability (NCI-H3122; first compound 0.06325 µM): 0.0893 | relative viability (NCI-H3122; first compound 0.2 µM): 0.0769 | relative viability (SK-LU-1; first compound 0.002 µM): 0.825 | relative viability (SK-LU-1; first compound 0.006325 µM): 0.559 | relative viability (SK-LU-1; first compound 0.02 µM): 0.392 | relative viability (SK-LU-1; first compound 0.06325 µM): 0.131 | relative viability (SK-LU-1; first compound 0.2 µM): 0.133 | relative viability (COR-L23; first compound 0.002 µM): 1.06 | relative viability (COR-L23; first compound 0.006325 µM): 0.894 | relative viability (COR-L23; first compound 0.02 µM): 1.12 | relative viability (COR-L23; first compound 0.06325 µM): 0.124 | relative viability (COR-L23; first compound 0.2 µM): 0.105 | relative viability (HCC-366; first compound 0.002 µM): 0.925 | relative viability (HCC-366; first compound 0.006325 µM): 0.921 | relative viability (HCC-366; first compound 0.02 µM): 0.921 | relative viability (HCC-366; first compound 0.06325 µM): 0.887 | relative viability (HCC-366; first compound 0.2 µM): 0.199 | relative viability (NCI-H650; first compound 0.002 µM): 1.09 | relative viability (NCI-H650; first compound 0.006325 µM): 0.974 | relative viability (NCI-H650; first compound 0.02 µM): 0.782 | relative viability (NCI-H650; first compound 0.06325 µM): 0.811 | relative viability (NCI-H650; first compound 0.2 µM): 0.149 | relative viability (LU99A; first compound 0.002 µM): 0.821 | relative viability (LU99A; first compound 0.006325 µM): 0.758 | relative viability (LU99A; first compound 0.02 µM): 0.527 | relative viability (LU99A; first compound 0.06325 µM): 0.186 | relative viability (LU99A; first compound 0.2 µM): 0.175 | relative viability (NCI-H23; first compound 0.002 µM): 1.26 | relative viability (NCI-H23; first compound 0.006325 µM): 1.03 | relative viability (NCI-H23; first compound 0.02 µM): 0.858 | relative viability (NCI-H23; first compound 0.06325 µM): 0.971 | relative viability (NCI-H23; first compound 0.2 µM): 0.591 | relative viability (NCI-H460; first compound 0.002 µM): 1.01 | relative viability (NCI-H460; first compound 0.006325 µM): 1.07 | relative viability (NCI-H460; first compound 0.02 µM): 0.957 | relative viability (NCI-H460; first compound 0.06325 µM): 0.0285 | relative viability (NCI-H460; first compound 0.2 µM): 0.0276
